This is an account of results in patent US11377442B2, “Small molecule agonists and antagonists of NR2F6 activity” (ZANDER THERAPEUTICS, INC., priority 2016, dated 2022).

Type in all cases: cell-based
In assay [1] the target is T1, NR2F6 (Homo sapiens, UniProt P10588).
T1 construct: expressed in transfected cells; also transient transfection
T1 sequence (P10588 1-404): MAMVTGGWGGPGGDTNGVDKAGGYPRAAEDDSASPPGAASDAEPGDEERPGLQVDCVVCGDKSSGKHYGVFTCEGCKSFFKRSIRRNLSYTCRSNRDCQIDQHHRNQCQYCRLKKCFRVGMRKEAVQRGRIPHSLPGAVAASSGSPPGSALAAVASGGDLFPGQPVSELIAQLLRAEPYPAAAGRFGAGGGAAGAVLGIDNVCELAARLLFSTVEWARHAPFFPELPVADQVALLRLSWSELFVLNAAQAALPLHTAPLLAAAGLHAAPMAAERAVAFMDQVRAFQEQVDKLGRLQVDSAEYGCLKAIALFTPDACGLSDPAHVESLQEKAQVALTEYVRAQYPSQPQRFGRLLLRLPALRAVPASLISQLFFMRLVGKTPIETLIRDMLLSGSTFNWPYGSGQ
The assay is described as follows: NR2F6 agonist screening, Firefly signal cmpd/DMSO.

Assay [2] deals with T2, ERα (Homo sapiens, UniProt P03372).
T2 construct: expressed in transfected cells
T2 sequence (P03372 1-595): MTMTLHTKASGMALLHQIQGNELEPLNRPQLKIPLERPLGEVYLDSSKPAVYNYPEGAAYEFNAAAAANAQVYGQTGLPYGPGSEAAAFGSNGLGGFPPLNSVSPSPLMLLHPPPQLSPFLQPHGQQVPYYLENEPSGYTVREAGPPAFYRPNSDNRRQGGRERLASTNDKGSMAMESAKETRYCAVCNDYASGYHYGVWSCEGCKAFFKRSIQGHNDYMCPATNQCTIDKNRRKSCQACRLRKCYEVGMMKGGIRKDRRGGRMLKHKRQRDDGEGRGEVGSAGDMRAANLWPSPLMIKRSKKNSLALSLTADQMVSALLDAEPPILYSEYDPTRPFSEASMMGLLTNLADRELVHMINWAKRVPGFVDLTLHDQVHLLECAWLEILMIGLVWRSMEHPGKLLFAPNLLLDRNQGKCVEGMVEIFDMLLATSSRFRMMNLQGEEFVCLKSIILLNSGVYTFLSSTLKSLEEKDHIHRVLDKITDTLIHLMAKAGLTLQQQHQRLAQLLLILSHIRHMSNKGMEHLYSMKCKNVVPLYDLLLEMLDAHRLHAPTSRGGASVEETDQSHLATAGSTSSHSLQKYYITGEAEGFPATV
The assay is described as follows: Counterscreening, Firefly signal with ERα transient transfection (Firefly_ERa). The conditions noted are these: 10 uM. Here is the method:
The methodology for screening candidate compounds as NR2F6 agonists was as follows: For primary screening, hit criteria was ACT %>DMSO control+5*SD (DSO control) at 10 μM, or any compound with S/B>2. For rescreening, hit criteria was ACT %>DMSO control+3*SD (DSO control) in each replicate at 10 μM. For counterscreening, hit criteria was mean ACT<DMSO control+3*SD (DMSO control) with ERα transient transfection in duplicate at 10 μM.
Background: A counterscreen serves to expose hits that act by an unwanted route or on another target.

For assay [3], the system named is Renilla. The assay is described as follows: Renilla signal in NR2F6 agonist screening, cmpd/DMSO. The conditions noted are these: Renilla, read-out: Renilla F4, cmpd/DMSO (mean).
For assay [4], the system named is Renilla_ERa. In words: Renilla signal in ERα counterscreen (Renilla_ERa). Conditions: read-out: Renilla ERalpha transient, cmpd/DMSO (mean).
Assay [5] has as its target T2, ERα. In words: Counterscreening, Firefly signal with ERα transient transfection (Firefly_ERa).

Each structure is given as a SMILES string. Read-outs that look alike come from different tables or passages of the source.

Turning to `N#Cc1c(C(F)(F)F)nc2ccc(Cl)cc2c1NC1CC1` [Compound Z48], the “Firefly F4, cmpd/DMSO (mean)” value in assay [1] (2 uM, clone F4) stood at 0.9; in assay [1] (10 uM, clone F4) it was 0.5; in assay [1] (40 uM, clone F4), 0.7. Further, the “Firefly ERalpha transient, cmpd/DMSO (mean)” value in assay [2] is reported as 0.3; in assay [5] (2 uM), 1.5; in assay [5] (40 uM) it was 0.5. Besides, the fold induction at 2 µM in assay [3] (clone F4) came out at 0.8; in assay [4] it was 1.1. The fold induction at 10 µM was determined as 0.6 in assay [3] (clone F4) and 0.8 in assay [4]. In addition, the fold induction at 40 µM in assay [3] (clone F4) and in assay [4] was 0.6 in each case.

As for `N#CC1=C(N)n2nc(-c3ccccc3)cc2NC1(c1ccc(N2CCOCC2)cc1)C(F)(F)F` (stereo not drawn) [Compound Z49], the “Firefly F4, cmpd/DMSO (mean)” value in assay [1] (2 uM, clone F4) was 0.8; in assay [1] (10 uM, clone F4), 0.7; in assay [1] (40 uM, clone F4), 0.6. The figures for the “Firefly ERalpha transient, cmpd/DMSO (mean)” value in assay [2], in assay [5] (2 uM) and in assay [5] (40 uM) were 0.4, 1.0 and 0.4, respectively. The fold induction at 2 µM in assay [3] (clone F4) and in assay [4] was 1 throughout. Besides, the fold induction at 10 µM in assay [3] (clone F4) and in assay [4] was 0.7 throughout. Further, the fold induction at 40 µM in assay [3] (clone F4) and in assay [4] was 0.8 in each case.

In the case of `COc1ccc(-c2cc3n(n2)C(N)=C(C#N)C(c2cccn2C)(C(F)(F)F)N3)cc1OC` (stereo not drawn) [Compound Z50], the “Firefly F4, cmpd/DMSO (mean)” value in assay [1] (2 uM, clone F4) was 0.8; in assay [1] (10 uM, clone F4), 0.9; in assay [1] (40 uM, clone F4) it was 0.6. Further, the “Firefly ERalpha transient, cmpd/DMSO (mean)” value in assay [2] is given as 0.7; in assay [5] (2 uM), 1.3; in assay [5] (40 uM), 0.7. The fold induction at 2 µM is 1.6 in assay [3] (clone F4) and 1 in assay [4]. The fold induction at 10 µM in assay [3] (clone F4) was 2; in assay [4], 0.8. Moreover, the figures for the fold induction at 40 µM in assay [3] (clone F4) and in assay [4] were 0.8 and 0.6, respectively.

For the compound `N#Cc1c(C(F)(F)F)nc2ccc(Oc3ccccc3)cc2c1N1CCNCC1` [Compound Z51], the “Firefly F4, cmpd/DMSO (mean)” value in assay [1] (2 uM, clone F4) was found to be 0.6; in assay [1] (10 uM, clone F4) it was 0.6; in assay [1] (40 uM, clone F4) it was 0.7. The figures for the “Firefly ERalpha transient, cmpd/DMSO (mean)” value in assay [2], in assay [5] (2 uM) and in assay [5] (40 uM) were 0.8, 1.3 and 0.4, respectively. Besides, the fold induction at 2 µM in assay [3] (clone F4) stood at 0.8; in assay [4], 1.1. Also, the fold induction at 10 µM in assay [3] (clone F4) was 0.7; in assay [4] it was 0.9. For the same compound, the fold induction at 40 µM in assay [3] (clone F4) and in assay [4] was 0.3 throughout.

As to `N#Cc1c(C(F)(F)F)nc2ccc(Oc3ccccc3)cc2c1NCCc1ccc(Cl)cc1` [Compound Z52], the “Firefly F4, cmpd/DMSO (mean)” value in assay [1] (2 uM, clone F4) turned out to be 0.6; in assay [1] (10 uM, clone F4), 0.7; in assay [1] (40 uM, clone F4), 0.7. For the same compound, the “Firefly ERalpha transient, cmpd/DMSO (mean)” value was 0.4 in assay [2], 0.7 in assay [5] (2 uM) and 0.7 in assay [5] (40 uM). For the same compound, the fold induction at 2 µM amounted to 0.8 in assay [3] (clone F4) and 1.1 in assay [4]. Besides, the fold induction at 10 µM in assay [3] (clone F4) came out at 0.5; in assay [4], 0.8. In addition, the fold induction at 40 µM in assay [3] (clone F4) was 0.6; in assay [4], 0.7.

Consider `CNc1c(C#N)c(C(F)(F)F)nc2ccc(Oc3ccccc3)cc12` [Compound Z53], for which the “Firefly F4, cmpd/DMSO (mean)” value in assay [1] (2 uM, clone F4) came out at 0.8; in assay [1] (10 uM, clone F4), 0.4; in assay [1] (40 uM, clone F4) it was 0.5. In addition, the entries for the “Firefly ERalpha transient, cmpd/DMSO (mean)” value in assay [2], in assay [5] (2 uM) and in assay [5] (40 uM) were 0.3, 1.0 and 0.4, respectively. Further, the fold induction at 2 µM in assay [3] (clone F4) was 0.7; in assay [4] it was 1. For the same compound, the fold induction at 10 µM was determined as 0.7 in assay [3] (clone F4) and 0.6 in assay [4]. Further, the fold induction at 40 µM was determined as 0.6 in assay [3] (clone F4) and 0.5 in assay [4].

On to `CCOC(=O)c1cnc2c(C)cc(C)cc2c1NCCCN` [Compound Z58], for which the “Firefly F4, cmpd/DMSO (mean)” value in assay [1] (Table 15, 2 uM) turned out to be 0.9; in assay [1] (Table 15, 10 uM), 4.5; in assay [1] (Table 15, 40 uM) it was 0.8. The “Firefly ERalpha transient, cmpd/DMSO (mean)” value in assay [2] (Table 15) is recorded as 6.5; in assay [5] (Table 15, 2 uM) it was 1.5; in assay [5] (Table 15, 40 uM) it was 0.8. Besides, the fold induction at 2 µM in assay [3] (Table 15) was 1.3; in assay [4] (Table 15) it was 1.2. Besides, the fold induction at 10 µM in assay [3] (Table 15) is 1.2; in assay [4] (Table 15), 1.1. Moreover, the fold induction at 40 µM in assay [3] (Table 15) amounted to 0.8; in assay [4] (Table 15), 0.7.

With `CCOC(=O)c1cnc2c(C)cc(C)cc2c1NCCCN1CCCC1` [Compound Z61], the “Firefly F4, cmpd/DMSO (mean)” value in assay [1] (Table 15, 2 uM) is given as 1.7; in assay [1] (Table 15, 10 uM) it was 2.5; in assay [1] (Table 15, 40 uM) it was 0.8. Also, the “Firefly ERalpha transient, cmpd/DMSO (mean)” value was determined as 9.1 in assay [2] (Table 15); 3.0 in assay [5] (Table 15, 2 uM); 0.7 in assay [5] (Table 15, 40 uM). Further, the figures for the fold induction at 2 µM in assay [3] (Table 15) and in assay [4] (Table 15) were 1.3 and 1.4, respectively. For the same compound, the fold induction at 10 µM in assay [3] (Table 15) turned out to be 0.5; in assay [4] (Table 15), 0.8. In addition, the fold induction at 40 µM in assay [3] (Table 15) was determined as 0.6; in assay [4] (Table 15) it was 0.7.

For the compound `CCOC(=O)c1cnc2c(C)cc(C)cc2c1N1CCC(N(C)C)CC1` [Compound Z68], the “Firefly F4, cmpd/DMSO (mean)” value in assay [1] (Table 15, 2 uM) came to 1.5; in assay [1] (Table 15, 10 uM), 1.1; in assay [1] (Table 15, 40 uM), 1.2. The “Firefly ERalpha transient, cmpd/DMSO (mean)” value was 1.5 in assay [2] (Table 15); 1.1 in assay [5] (Table 15, 2 uM); 0.7 in assay [5] (Table 15, 40 uM). Besides, the figures for the fold induction at 2 µM in assay [3] (Table 15) and in assay [4] (Table 15) were 0.9 and 1.1, respectively. Moreover, the figures for the fold induction at 10 µM in assay [3] (Table 15) and in assay [4] (Table 15) were 1 and 0.9, respectively. In addition, the fold induction at 40 µM in assay [3] (Table 15) and in assay [4] (Table 15) was 0.6 in each case.

With `CCOC(=O)c1cnc2c(C)cc(C)cc2c1NCCCO` [Compound Z70], the “Firefly F4, cmpd/DMSO (mean)” value came out at 1.1 in assay [1] (Table 15, 2 uM); 1.0 in assay [1] (Table 15, 10 uM); 1.0 in assay [1] (Table 15, 40 uM). The “Firefly ERalpha transient, cmpd/DMSO (mean)” value was 1.1 in assay [2] (Table 15); 0.9 in assay [5] (Table 15, 2 uM); 1.5 in assay [5] (Table 15, 40 uM). Besides, the fold induction at 2 µM in assay [3] (Table 15) came out at 0.8; in assay [4] (Table 15), 1.1. Further, the fold induction at 10 µM in assay [3] (Table 15) was 1.3; in assay [4] (Table 15) it was 1. In addition, the fold induction at 40 µM in assay [3] (Table 15) was 1.3; in assay [4] (Table 15), 1.2.
